# Measurements taken from ChEMBL document CHEMBL4033672, “Synthesis and biological evaluation of chemokine receptor ligands with 2-benzazepine scaffold” (Eur J Med Chem, 2017).
# Active and inactive are the calls of the source. No cut-off for these calls is given here.
# How the values were obtained:
# [1] = molecular target: T1, C-C chemokine receptor type 5 (Homo sapiens, UniProt P51681); test: Positive allosteric modulation of human CCR5 expressed in HEK293T cells co-expressing CAMYEL assessed as increase in CCL4-induced inhibition of forskolin-stimulated cAMP accumulation after 10 mins by BRET assay; format: functional, cell-based, HEK-293T
# Target sequence in this assay (P51681 whole entry): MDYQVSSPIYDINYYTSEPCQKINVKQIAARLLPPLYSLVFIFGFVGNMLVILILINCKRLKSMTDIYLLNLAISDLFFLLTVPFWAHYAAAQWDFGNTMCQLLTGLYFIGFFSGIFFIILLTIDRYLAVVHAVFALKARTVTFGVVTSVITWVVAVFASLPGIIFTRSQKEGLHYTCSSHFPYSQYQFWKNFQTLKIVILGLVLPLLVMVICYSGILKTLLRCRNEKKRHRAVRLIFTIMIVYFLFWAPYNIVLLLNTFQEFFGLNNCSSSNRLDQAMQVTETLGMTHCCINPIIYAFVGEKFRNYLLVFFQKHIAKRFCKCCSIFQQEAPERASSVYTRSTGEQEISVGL
# [2] = molecular target: T1, C-C chemokine receptor type 5; test: Positive allosteric modulation of human CCR5 expressed in HEK293T cells co-expressing CAMYEL assessed as increase in CCL5-induced inhibition of forskolin-stimulated cAMP accumulation after 10 mins by BRET assay; format: functional, cell-based; conditions: HEK-293T
# Target sequence in this assay (P51681 whole entry, looked up): as the sequence (P51681 whole entry) above
# [3] = molecular target: T1, C-C chemokine receptor type 5; test: Intrinsic agonist activity at human CCR5 expressed in HEK293T cells co-expressing CAMYEL assessed as inhibition of forskolin-stimulated cAMP accumulation after 10 mins by BRET assay; format: functional, cell-based; conditions: HEK-293T
# Target sequence in this assay (P51681 whole entry, looked up): as the sequence (P51681 whole entry) above
# [4] = molecular target: T2, C-C chemokine receptor type 2 (Homo sapiens, UniProt P41597); test: Displacement of [3H]INCB3344 from human CCR2 expressed in human U2OS cells at 1 uM after 120 mins by scintillation spectrometric analysis relative to control; format: cell-based
# Target sequence in this assay (P41597 whole entry, looked up): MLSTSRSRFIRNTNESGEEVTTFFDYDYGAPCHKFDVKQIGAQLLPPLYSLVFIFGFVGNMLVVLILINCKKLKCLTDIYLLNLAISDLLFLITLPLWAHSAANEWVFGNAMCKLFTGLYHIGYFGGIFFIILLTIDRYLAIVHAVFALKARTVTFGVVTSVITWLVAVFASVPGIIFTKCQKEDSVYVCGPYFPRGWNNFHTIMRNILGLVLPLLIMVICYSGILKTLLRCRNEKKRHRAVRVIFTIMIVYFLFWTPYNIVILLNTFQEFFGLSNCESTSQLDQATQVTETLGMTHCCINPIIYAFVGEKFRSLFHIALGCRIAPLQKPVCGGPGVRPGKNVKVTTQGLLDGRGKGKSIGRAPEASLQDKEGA
# [5] = molecular target: T1, C-C chemokine receptor type 5; test: Displacement of [3H]TAK-779 from CCR5 (unknown origin) at 1 uM after 120 mins by scintillation counting method relative to control
# Target sequence in this assay (P51681 whole entry, looked up): as the sequence (P51681 whole entry) above
# [6] = molecular target: T1, C-C chemokine receptor type 5; test: Displacement of [3H]TAK-779 from CCR5 (unknown origin) after 120 mins by scintillation counting method
# Target sequence in this assay (P51681 whole entry): as above
# [7] = molecular target: T2, C-C chemokine receptor type 2; test: Displacement of [3H]INCB3344 from human CCR2 expressed in human U2OS cells after 120 mins by scintillation spectrometric analysis; format: cell-based
# Target sequence in this assay (P41597 whole entry): as the sequence (P41597 whole entry, looked up) above
# [8] = molecular target: T1, C-C chemokine receptor type 5; test: Negative allosteric modulation of human CCR5 expressed in HEK293T cells co-expressing CAMYEL assessed as decrease in CCL4-induced inhibition of forskolin-stimulated cAMP accumulation after 10 mins by BRET assay; format: functional, cell-based; conditions: HEK-293T
# Target sequence in this assay (P51681 whole entry, looked up): as the sequence (P51681 whole entry) above
# [9] = molecular target: T1, C-C chemokine receptor type 5; test: Negative allosteric modulation of human CCR5 expressed in HEK293T cells co-expressing CAMYEL assessed as decrease in CCL5-induced inhibition of forskolin-stimulated cAMP accumulation after 10 mins by BRET assay; format: functional, cell-based; conditions: HEK-293T
# Target sequence in this assay (P51681 whole entry, looked up): as the sequence (P51681 whole entry) above
# [10] = molecular target: T2, C-C chemokine receptor type 2; test: Antagonist activity at human CCR2b expressed in human Chem1 cells assessed as inhibition of human recombinant CCL2 induced Ca2+ mobilization preincubated for 10 mins followed by CCL2 induction measured every sec for 120 secs by Fluo-4-AM dye-based fluorescence assay; format: functional, cell-based
# Target sequence in this assay (P41597 whole entry): as the sequence (P41597 whole entry, looked up) above
Structure (SMILES),EC50 [1],Activity [2],Activity [3],inhibition [4],inhibition [5],IC50 [6],IC50 [7],Activity [8],Activity [9],IC50 [10]
CC(C)CN1CC(C(=O)Nc2ccc(CN(C)C3CCOCC3)cc2)=Cc2ccccc2C1=O,2470 nM,inactive,inactive,18%,0%,–,–,–,–,–
Cc1ccc(-c2ccc3c(c2)C=C(C(=O)Nc2ccc(C[N+](C)(C)C4CCOCC4)cc2)CCC3)cc1,7 nM,–,–,–,–,2 nM,–,–,–,–
Cc1ccc(-c2ccc3c(c2)C=C(C(=O)Nc2ccc(CN(C)C4CCOCC4)cc2)CN(CC(C)C)C3=O)cc1,> 10 nM,–,–,–,0%,–,387 nM,Active,Active,140 nM
CC(C)CN1CC(C(=O)Nc2ccc(CN(C)C3CCOCC3)cc2)=Cc2ccc(NS(C)(=O)=O)cc2C1=O,> 10 nM,–,–,18%,0%,–,–,–,–,–
CC(C)CN1CC(C(=O)Nc2ccc(S(=O)(=O)Nc3nccs3)cc2)=Cc2ccccc2C1=O,> 10 nM,–,–,18%,0%,–,–,–,–,–
Cc1ccc(-c2ccc3c(c2)C(=O)N(CC(C)C)CC(C(=O)Nc2ccc(CN(C)C4CCOCC4)cc2)=C3)cc1,> 10 nM,–,–,0%,0%,–,–,–,–,3000 nM
CC(=O)Nc1ccc2c(c1)C(=O)N(CC(C)C)CC(C(=O)Nc1ccc(CN(C)C3CCOCC3)cc1)=C2,> 10 nM,–,–,15%,0%,–,–,–,–,–
CC(C)CN1CC(C(=O)Nc2ccc(CN(C)C3CCOCC3)cc2)=Cc2ccc([N+](=O)[O-])cc2C1=O,> 10 nM,–,–,9%,0%,–,–,–,–,–
CC(C)CN1CC(C(=O)Nc2ccc(CN(C)C3CCOCC3)cc2)=Cc2c(cccc2[N+](=O)[O-])C1=O,> 10 nM,–,–,6%,0%,–,–,–,–,–
